# Reference: patent US20190175690A1, “COMPOSITIONS AND METHODS FOR CARDIAC REPAIR” (CHILDREN'S MEDICAL CENTER CORPORATION, priority 2016, published 2019)
# Tests used:
# [1] = test system: VGLL4-mediated TEAD1 degradation; assay: VGLL4-mediated TEAD1 degradation in co-transfected 293T cells (immunoblot); type: cell-based; details: 293T cells co-transfected with TEAD1 and VGLL4, inhibitors for 6 hours
# Procedure: HA-VGLL4 was cloned downstream of TetO promoter. pEF1α::rtTA was used to express rtTA. The expression of HA-VGLL4 will be activated in the presence of both Dox and rtTA. […] 293T cells were co-transfected with pEF1α::rtTA and pTetO::HA-Vgll4. Twenty-four (24) hours after transfection, cells were treated with […] Dox for different hours. Immunoblotting was carried out to detect the expression of HA-VGLL4. […] Mouse Tead1 specific primers were used to measure relative Tead1-Dendra2 mRNA level by qRT-PCR. FIG. 8D depicts an immunoblot showing TEAD1 degradation is dependent on cysteine proteases and is independent of the proteasome. 293T cells were first co-transfected with TEAD1^fb and Vgll4-GFP plasmids. 1 day after transfection, cells were treated with indicated inhibitors for 6 hours. Dimethyl sulfoxide (DMSO, 0.1%) was used as control vehicle. β-tubulin was used as loading control.
# Major pathways for protein degradation can include the proteasome and cysteine, serine, and threonine peptidases. To determine if these candidate pathways are involved in VGLL4-mediated TEAD1 degradation, the effect of MG132 (a universal proteasome inhibitor (Lee et al., 1998)), leupeptin (an inhibitor of serine and threonine peptidases (Umezawa, 1976)) and E64 (an inhibitor specific to cysteine proteases (Barrett et al., 1982)) on VGLL4-mediated TEAD1 degradation was studied.
# [2] = test system: myocardial infarction; details: Dong et al., 2007; cited from earlier work
# [3] = test system: TEAD1-Dendra2; assay: pulse-labeled TEAD1-Dendra2 live cell imaging in 293T cells; type: cell-based; details: photoconverted TEAD1-Dendra2, Dox-induced VGLL4
# Procedure: (§1) FIG. 7A is an immunoblot showing VGLL4 overexpression decreased TEAD1 protein level. Different doses of TEAD1 plasmids (indicated in μg) were co-transfected with 1.6 μg VGLL4-GFP plasmid. Cells were collected for western blot 24 hours after transfection. FIGS. 7B-7C show the generation and validation of TEAD1-Dendra2 construct. Tead1-Dendra2 plasmid was transfected into 293T cells. Western blot confirmed expression of TEAD1-Dendra2 fusion protein (FIG. 7B). TEAD1-Dendra2 merge fusion protein was green before illumination with 405 nm light. […] Cells were analyzed at the indicated time points. […] FIG. 7E is a graph showing the quantification of TEAD1-Dendra2 protein levels in FIG. 7D. *P<0.05. n=3. […] Relative red fluorescence intensity (RFI) was monitored for 20 minutes by taking one image per minute. n=6. […] Twenty-four (24) hours after transfection, cells were treated with Dox for the indicated number of hours, when cell extracts were analyzed for Firefly and Renilla luciferase activity. […]
# DOX-induced VGLL4 expression was combined with live cell imaging of TEAD1-Dendra2 to specifically probe the effect of VGLL4 on TEAD1 stability. […] In the absence of VGLL4, TEAD1-Dendra2 protein fluorescence intensity dropped by 10% during the first 10 minutes, and then became relatively stable. […]
# [4] = test system: high salt diet induced heart failure; details: Cheng et al., 2008; cited from earlier work
# [5] = test system: TEAD1-YAP transcriptional activity; assay: 8xGTIIC-Luci luciferase reporter assay in 293T cells with DOX-induced VGLL4; type: cell-based
# Procedure: as §1
# The data indicates an additional mechanism, in which VGLL4 binding to TEAD1 promotes its degradation and thereby reduces the amount available to interact with YAP. To test additional mechanisms, the TEAD1 luciferase reporter 8xGTIIC-Luci (Dupont et al., 2011) was used as a read out of TEAD1-YAP transcriptional activity. […]
# [6] = target: His-TEAD1[211-427] (recombinant murine TEAD1 residues 211-427 with polyhistidine tag, from E. coli) (mouse) (UniProt P30051); assay: photonic crystal nanobeam sensor, His-TEAD1[211-427] immobilized, curve fitted to the Langmuir equation
# [7] = clinical testing, Chen et al., 2013; cited from earlier work
# [8] = target: TEAD1-Dendra2 fusion protein (mouse) (UniProt P30051)
# [9] = target: TEAD1-Dendra2 fusion protein (mouse) (UniProt P30051); remark: listed apart in the source
# [10] = target: Dendra2
compound,measurement,setting,value
CC(=O)N[C@@H](CC(C)C)C(=O)N[C@@H](CC(C)C)C(=O)N[C@H](C=O)CCCNC(=N)N [leupeptin],VGLL4-mediated reduction of TEAD1 steady-state levels,[1],reduced VGLL4-mediated reduction of TEAD1 steady-state levels
"CC(C)C[C@H](NC(=O)[C@H]1O[C@@H]1C(=O)O)C(=O)NCCCCN=C(N)N (relative stereo) [E64, L-trans-Epoxysuccinyl-leucylamido(4-guanidino)butane]",beneficial effect in myocardial infarction model,[2],did not show a beneficial effect
same,destabilizing effect of VGLL4 on TEAD1-Dendra2,[3],reduced the destabilizing effect of VGLL4 on TEAD1-Dendra2
same,high salt diet induced heart failure,[4],attenuated high salt diet induced heart failure
same,VGLL4-mediated reduction of TEAD1 steady-state levels,[1],reduced VGLL4-mediated reduction of TEAD1 steady-state levels
same,reduction of TEAD1 transcriptional activity caused by VGLL4 induction,[5],did not completely abrogate
same,luciferase reporter activity,"[5]; 8 hours after DOX treatment, P<0.05",significantly increased reporter activity
synthetic non-acetylated VGLL4 TDU domain peptide with V5 epitope (from UniProt Q14135-4),Kd,[6],3.1 nM
CCOC(=O)[C@H]1O[C@@H]1C(=O)N[C@@H](CC(C)C)C(=O)NCCC(C)C [E64d],safety profile,[7],good safety profile
"HA-VGLL4 (doxycycline-inducible, pTetO::HA-VGLL4)",steady-state TEAD1-Dendra2 protein level after Dox (immunoblot),[8],50%
same,red fluorescence intensity of photoconverted TEAD1-Dendra2 (time lapse imaging),[9],18%
same,red fluorescence intensity of photoconverted Dendra2 (time lapse imaging),[10],5%
